“And” between values parts separate entries of the source, which are not always exact repeats. Equal values may be shown once. Toxic doses and inconclusive results are not listed. Rule for the calls: active = survival T/C of 150% or more; inactive = T/C below 125% in these data.
Test system: BDF1 mice, P388 leukemia ip, median survival T/C
Assay: NCI In Vivo Anticancer Drug Screen. Data for tumor model P388 Leukemia (intraperitoneal) in B6D2F1 (BDF1) mice
Details: endpoint: median survival time, higher = longer survival
Summary of the method: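 Mice carrying the transplantable tumour receive compound or vehicle. Survival is followed in each arm, and the treated measure is divided by the vehicle measure.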

[1] = dose: 50.0 mg/kg/injection, schedule: Q01DX009 (ip), vehicle: saline with Tween-80
[2] = dose: 100.0 mg/kg/injection, schedule: Q04DX003 (ip), vehicle: saline with Tween-80
[3] = dose: 200.0 mg/kg/injection, schedule: Q04DX003 (ip), vehicle: saline with Tween-80
[4] = dose: 400.0 mg/kg/injection, schedule: Q04DX003 (ip), vehicle: saline with Tween-80
[5] = dose: 50.0 mg/kg/injection, schedule: Q04DX003 (ip), vehicle: saline with Tween-80

Measured: T/C

CO[C@H](C(=O)[C@@H](O)[C@@H](C)O)[C@@H]1Cc2cc3cc(O)c(C)c(O)c3c(O)c2C(=O)[C@H]1O
inactive: dose: 0.12 mg/kg/injection, schedule: Q01DX009 (ip), vehicle: water 114 % of control | dose: 0.25 mg/kg/injection, schedule: Q01DX009 (ip), vehicle: water 107 % of control | dose: 0.5 mg/kg/injection, schedule: Q01DX009 (ip), vehicle: water 114 % of control | dose: 1.0 mg/kg/injection, schedule: Q01DX009 (ip), vehicle: water 99 % of control | dose: 2.0 mg/kg/injection, schedule: Q01DX009 (ip), vehicle: water 97 % of control | dose: 4.0 mg/kg/injection, schedule: Q01DX009 (ip), vehicle: water 99 % of control

CCN(CC)C(=O)c1ccc([N+](=O)[O-])cc1
inactive: dose: 50.0 mg/kg/injection, schedule: Q01DX009 (ip), vehicle: Klucel (hydroxypropylcellulose) (HPC) 103 % of control | dose: 50.0 mg/kg/injection, schedule: Q04DX003 (ip), vehicle: Klucel (hydroxypropylcellulose) (HPC) 95 % of control | dose: 100.0 mg/kg/injection, schedule: Q01DX009 (ip), vehicle: Klucel (hydroxypropylcellulose) (HPC) 100 % of control | dose: 200.0 mg/kg/injection, schedule: Q01DX009 (ip), vehicle: Klucel (hydroxypropylcellulose) (HPC) 89 % of control | dose: 200.0 mg/kg/injection, schedule: Q04DX003 (ip), vehicle: Klucel (hydroxypropylcellulose) (HPC) 104 % of control

CC(=O)c1c(C)cc(C(C)(C)C)cc1C
inactive: dose: 100.0 mg/kg/injection, schedule: Q01DX009 (ip), vehicle: saline 109 % of control | dose: 200.0 mg/kg/injection, schedule: Q01DX009 (ip), vehicle: saline 100 % of control | dose: 400.0 mg/kg/injection, schedule: Q01DX009 (ip), vehicle: saline 109 % of control

CCCC(=O)N(C)C(C)C(=O)OC1CC(=O)N(C)c2cc(cc(OC)c2Cl)C/C(C)=C/C=CC(OC)C2(O)CC(OC(=O)N2)C(C)C2OC12C (stereo not drawn)
inactive: dose: 0.1 micrograms/kg/injection, schedule: Q01DX009 (ip), vehicle: saline + alcohol 97 % of control | dose: 0.2 micrograms/kg/injection, schedule: Q01DX009 (ip), vehicle: saline + alcohol 93 % of control | dose: 0.4 micrograms/kg/injection, schedule: Q01DX009 (ip), vehicle: saline + alcohol 104 % of control | dose: 0.8 micrograms/kg/injection, schedule: Q01DX009 (ip), vehicle: saline + alcohol 96 % of control and 112 % of control | dose: 0.8 micrograms/kg/injection, schedule: Q01DX009 (ip), vehicle: saline 104 % of control | dose: 1.6 micrograms/kg/injection, schedule: Q01DX009 (ip), vehicle: saline + alcohol 102 % of control and 107 % of control | dose: 1.6 micrograms/kg/injection, schedule: Q01DX009 (ip), vehicle: saline 105 % of control | dose: 3.1 micrograms/kg/injection, schedule: Q01DX009 (ip), vehicle: saline + alcohol 88 % of control and 111 % of control | dose: 3.1 micrograms/kg/injection, schedule: Q01DX009 (ip), vehicle: saline 105 % of control | dose: 6.2 micrograms/kg/injection, schedule: Q01DX009 (ip), vehicle: saline + alcohol 92 % of control and 114 % of control | dose: 6.2 micrograms/kg/injection, schedule: Q01DX009 (ip), vehicle: saline 96 % of control | dose: 12.5 micrograms/kg/injection, schedule: Q01DX009 (ip), vehicle: saline + alcohol 113 % of control | dose: 12.5 micrograms/kg/injection, schedule: Q01DX009 (ip), vehicle: saline 110 % of control | dose: 25.0 micrograms/kg/injection, schedule: Q01DX009 (ip), vehicle: saline + alcohol 97 % of control | dose: 25.0 micrograms/kg/injection, schedule: Q01DX009 (ip), vehicle: saline 107 % of control | dose: 25.0 nanograms/kg/injection, schedule: Q## X009 (ip), vehicle: other 94 % of control | dose: 50.0 micrograms/kg/injection, schedule: Q01DX009 (ip), vehicle: saline + alcohol 105 % of control and 122 % of control | dose: 50.0 micrograms/kg/injection, schedule: Q01DX009 (ip), vehicle: saline 116 % of control | dose: 100.0 micrograms/kg/injection, schedule: Q01DX009 (ip), vehicle: saline + alcohol 111 % of control | dose: 200.0 micrograms/kg/injection, schedule: Q01DX009 (ip), vehicle: saline + alcohol 111 % of control and 117 % of control | dose: 200.0 nanograms/kg/injection, schedule: Q## X009 (ip), vehicle: other 88 % of control | dose: 400.0 nanograms/kg/injection, schedule: Q## X009 (ip), vehicle: other 102 % of control

CCOC(=O)CN1C=C(C(=O)c2cc3ccccc3[nH]2)CCC1
inactive: dose: 0.06 mg/kg/injection, schedule: Q01DX009 (ip), vehicle: saline 105 % of control | dose: 0.12 mg/kg/injection, schedule: Q01DX009 (ip), vehicle: saline 105 % of control | dose: 0.25 mg/kg/injection, schedule: Q01DX009 (ip), vehicle: saline 105 % of control | dose: 0.5 mg/kg/injection, schedule: Q01DX009 (ip), vehicle: saline 100 % of control | dose: 1.0 mg/kg/injection, schedule: Q01DX009 (ip), vehicle: saline 105 % of control | dose: 2.0 mg/kg/injection, schedule: Q01DX009 (ip), vehicle: saline 110 % of control | dose: 4.0 mg/kg/injection, schedule: Q01DX009 (ip), vehicle: saline 99 % of control | dose: 8.0 mg/kg/injection, schedule: Q01DX009 (ip), vehicle: saline 98 % of control | dose: 16.0 mg/kg/injection, schedule: Q01DX009 (ip), vehicle: saline 93 % of control | dose: 32.0 mg/kg/injection, schedule: Q01DX009 (ip), vehicle: saline 98 % of control

CN(C)c1ccc(/C=C2\C=Cc3ccccc32)cc1Br
inactive: dose: 25.0 mg/kg/injection, schedule: Q04DX003 (sc), vehicle: olive oil, sesame oil, peanut oil 95 % of control | dose: 50.0 mg/kg/injection, schedule: Q04DX003 (sc), vehicle: olive oil, sesame oil, peanut oil 100 % of control | dose: 100.0 mg/kg/injection, schedule: Q04DX003 (sc), vehicle: olive oil, sesame oil, peanut oil 87 % of control

CCCn1/c(=N\N=O)sc2ccccc21
inactive: dose: 50.0 mg/kg/injection, schedule: Q04DX003 (ip), vehicle: saline sonified 100 % of control | dose: 100.0 mg/kg/injection, schedule: Q04DX003 (ip), vehicle: saline sonified 100 % of control | dose: 200.0 mg/kg/injection, schedule: Q04DX003 (ip), vehicle: saline sonified 95 % of control

O=C1CC2OCC=C3CN4CCC56c7ccccc7N1C5C2C3CC46 (stereo not drawn) (tested in a mixture with another compound)
inactive: dose: 0.5 mg/kg/injection, schedule: Q04DX003 (ip), vehicle: saline + alcohol 95 % of control | dose: 1.0 mg/kg/injection, schedule: Q04DX003 (ip), vehicle: saline + alcohol 110 % of control

CCCCSC#N
inactive: dose: 6.25 mg/kg/injection, schedule: Q01DX001 (ip), vehicle: saline 94 % of control | dose: 12.5 mg/kg/injection, schedule: Q01DX001 (ip), vehicle: saline 100 % of control

CC(=O)N1N=C(N)SC1c1ccc(Cl)c(Cl)c1 (stereo not drawn)
inactive: [1] 113 % of control | dose: 100.0 mg/kg/injection, schedule: Q01DX009 (ip), vehicle: saline with Tween-80 113 % of control

CCOC(=O)Cn1c(C(F)(F)F)nc2nc(Cl)c(Cl)nc21
inactive: [2] 110 % of control | [3] 110 % of control | [4] 110 % of control

c1ccc(CCCSc2ccccc2)cc1
inactive: [2] 118 % of control | [3] 113 % of control | [4] 109 % of control

CCCCCCCCC1SC1CCCCCCCC(=O)OCCOCCOCC (stereo not drawn)
inactive: dose: 100.0 mg/kg/injection, schedule: Q04DX003 (ip), vehicle: saline 88 % of control | dose: 200.0 mg/kg/injection, schedule: Q04DX003 (ip), vehicle: saline 88 % of control | dose: 400.0 mg/kg/injection, schedule: Q04DX003 (ip), vehicle: saline 92 % of control

[CH3][Ga][CH3].[CH3][Ga][CH3].[CH3][Ga][CH3].[CH3][Ga][CH3].[OH3+].[OH3+].[OH3+].[OH3+]
inactive: dose: 2.5 mg/kg/injection, schedule: Q01DX009 (ip), vehicle: saline with Tween-80 90 % of control

O=C1C2CC=CCC2C(=O)N1SC(Cl)(Cl)Cl (stereo not drawn)
inactive: dose: 6.25 mg/kg/injection, schedule: Q01DX009 (ip), vehicle: saline with Tween-80 120 % of control | dose: 12.5 mg/kg/injection, schedule: Q01DX009 (ip), vehicle: saline with Tween-80 120 % of control

NC(=O)c1ncc[nH]c1=O
inactive: [5] 100 % of control | [2] 100 % of control | [3] 105 % of control

Cn1c2c(c3ccccc3c1=O)C(=O)c1ccccc1-2
inactive: [1] 101 % of control | dose: 200.0 mg/kg/injection, schedule: Q01DX009 (ip), vehicle: saline with Tween-80 90 % of control

Cc1n[nH]c(=S)[nH]c1=S
inactive: dose: 25.0 mg/kg/injection, schedule: Q04DX003 (ip), vehicle: saline with Tween-80 109 % of control | [5] 100 % of control | [2] 104 % of control
